Consider 11 compounds from patent US11034725B2, “Compositions and methods for treating cardiovascular disease” (Genentech, Inc., priority 2016, dated 2021).

In one assay the target is T1, PCSK9Δhelix (Homo sapiens, UniProt Q8NBP7).
T1 construct: Human PCSK9 construct M1-Q692 with an engineered TEV site (residue deletion Y166, R167); made in house; host or cells: CHO
The experiment in a line: PCSK9Δhelix/Ab20 TR-FRET binding assay. (In TR-FRET formats the signal depends on donor and acceptor labels being close together.)

Another assay concerns His-EGF(A)-Fc. The experiment in a line: His-EGF(A)-Fc TR-FRET counterscreen.
The next assay addresses PCSK9 (Homo sapiens, UniProt Q8NBP7). The experiment in a line: PCSK9/EGF(A) TR-FRET binding assay. Particulars: for pIC50: Table 8D, disulfide-cyclized extension peptides.
[1] abbreviates: TR-FRET, Table 8D, disulfide-cyclized extension peptides, read-out: PCSK9Δhelix/Ab20 IC50.
Setting [2] is: TR-FRET counterscreen, Table 8D, * = some inhibition at highest concentrations, not sufficient to fit an IC50.
Setting [3] is: TR-FRET, read-out: PCSK9/EGF(A) IC50.
Where [4] appears, read: TR-FRET, Example 7, read-out: PCSK9Δhelix/Ab20 IC50.

pIC50: −log10 of the molar value. Values joined by “and” are separate entries in the source; they are usually repeats but may differ in a detail not shown here. Equal values may be shown once. Read-outs that look alike come from different tables or passages of the source. Bridge positions count the residues as written; N and C are the ends. Square brackets hold non-standard residues; d marks the D form. Peptide text beside a SMILES is read from it. Cit = NC(=O)NCCC[C@H](N)C(=O)O Bounds are passed on as bounds.

PCSK9, sequence (Q8NBP7 153-692): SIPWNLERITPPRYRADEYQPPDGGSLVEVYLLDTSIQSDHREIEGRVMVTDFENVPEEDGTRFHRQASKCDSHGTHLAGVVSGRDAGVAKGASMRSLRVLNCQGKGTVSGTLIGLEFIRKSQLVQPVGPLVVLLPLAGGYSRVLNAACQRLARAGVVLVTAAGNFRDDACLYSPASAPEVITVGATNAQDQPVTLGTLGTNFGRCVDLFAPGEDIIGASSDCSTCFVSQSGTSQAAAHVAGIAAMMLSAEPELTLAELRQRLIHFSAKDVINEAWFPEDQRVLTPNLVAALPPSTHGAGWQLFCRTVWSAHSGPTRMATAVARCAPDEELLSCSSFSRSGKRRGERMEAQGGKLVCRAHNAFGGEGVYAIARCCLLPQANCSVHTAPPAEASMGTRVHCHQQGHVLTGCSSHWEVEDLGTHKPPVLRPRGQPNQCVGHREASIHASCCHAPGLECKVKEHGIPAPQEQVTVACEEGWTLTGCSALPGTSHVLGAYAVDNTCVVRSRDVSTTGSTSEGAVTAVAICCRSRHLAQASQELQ
PCSK9, sequence (Q8NBP7 31-152 partner limits assumed): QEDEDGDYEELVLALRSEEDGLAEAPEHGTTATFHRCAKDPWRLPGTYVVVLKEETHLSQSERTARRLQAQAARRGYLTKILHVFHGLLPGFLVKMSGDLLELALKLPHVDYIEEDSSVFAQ
T1 sequence (Q8NBP7 with tags, fused parts or gaps limits assumed): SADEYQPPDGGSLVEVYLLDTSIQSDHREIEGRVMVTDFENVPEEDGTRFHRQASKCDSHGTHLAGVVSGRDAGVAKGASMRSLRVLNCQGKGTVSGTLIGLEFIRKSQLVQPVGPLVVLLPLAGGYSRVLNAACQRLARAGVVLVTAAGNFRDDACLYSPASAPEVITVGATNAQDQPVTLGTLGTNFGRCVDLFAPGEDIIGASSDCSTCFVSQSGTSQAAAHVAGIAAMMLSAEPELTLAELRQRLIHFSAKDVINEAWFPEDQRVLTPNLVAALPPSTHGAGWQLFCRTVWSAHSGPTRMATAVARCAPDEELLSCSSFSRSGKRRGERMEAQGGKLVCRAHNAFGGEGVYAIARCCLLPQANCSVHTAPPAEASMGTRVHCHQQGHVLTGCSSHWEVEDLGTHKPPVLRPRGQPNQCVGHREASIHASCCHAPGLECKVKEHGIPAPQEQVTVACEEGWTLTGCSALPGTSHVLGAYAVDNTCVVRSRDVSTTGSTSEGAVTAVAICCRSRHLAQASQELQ
T1 sequence (Q8NBP7 31-152 partner limits assumed): as the sequence (Q8NBP7 31-152 partner limits assumed) above
Protocol for PCSK9Δhelix: The former was based on a TF-FRET assay to measure the association of the EGF(A) domain of the LDLR to PCSK9 (“PCSK9/EGF(A) binding assay”) whilst the latter was based on a TR-FRET assay to measure binding of Ab20 to PCSK9Δhelix (“PCSK9Δhelix/Ab20 binding assay”).
The ability of compounds to inhibit binding to PCSK9 was evaluated with a panel of time-resolved fluorescence resonance energy transfer (TR-FRET) binding assays. […] The PCSK9Δhelix/Ab20 binding assay evaluated the ability of compounds to compete with Ab20 for binding to the N-terminal groove region in a His-tagged, PCSK9Δhelix construct. […] Signal generation in the PCSK9 binding assays was dependent upon the binding interaction to bring into close proximity the His-tag on the PCSK9 and the Fc-tag on the ligand. Anti-His-APC was bound to the His-tag, and anti-Fc-europium was bound to the Fc-tag. When these two antibodies were in close proximity and were irradiated with light at 340 nm, the europium was excited and emitted energy at 615 nm. This energy was taken up by the APC and was emitted as light at 665 nm. Compounds that competed with the ligand reduced the energy transfer and thus the emission at 665 nm. In the His-EGFA-Fc molecule in the counterscreen, the two tags were always in close proximity, thus any reduction in emission at 665 nm was due to interference with the detection system.
Compounds were solubilized and dilutions were prepared in DMSO. […] The plate was centrifuged to mix the well contents and allowed to incubate for 30 min. […] The TR-FRET signal was read on a ViewLux reader (PerkinElmer) with excitation at 340 nm and emission at 615 and 665 nm with a 50-μs time delay between excitation and measurement of emission. The TR-FRET ratio was calculated as the fluorescence emission at 665 nm divided by the fluorescence emission at 615 nm. The normalized TR-FRET ratios were plotted as a function of the compound concentrations, and the IC50 values were determined using a 4-parameter logistic regression.
In black 1536-well assay plates (MaKO, Aurora® Microplates, Whitefish, Mont.), 40 nL of peptide in DMSO were preincubated with 2 μL His-tagged PCSK9 plus anti-His-allophycocyanin in assay buffer (50 mM Tris-HCl, pH 7.5, 150 mM NaCl, 2 mM CaCl2, 0.01% Tween®-20, 0.1% bovine gamma globulins, and protease inhibitor cocktail) for 30 min. Then 2 μL of Fc-tagged ligand and anti-Fc-europium in assay buffer were added and allowed to incubate for 2 h.

With `CC[C@H](C)[C@@H]1NC(=O)[C@H](CCCNC(=N)N)NC(=O)[C@H](CCCCN)NC(=O)[C@H](CC(C)C)NC(=O)[C@H](CC(N)=O)NC(=O)[C@H](Cc2c[nH]c3ccccc23)NC(=O)[C@@H](NC(C)=O)CSSC[C@@H](C(N)=O)NC(=O)CNC(=O)[C@H](CCC(N)=O)NC(=O)[C@H](CO)NC(=O)CNC1=O` [Compound 21] (Ac-CWNLKRIGSQGC-NH2; disulfide 1-12), the pIC50 at PCSK9Δhelix (setting [1]), with His-EGF(A)-Fc (setting [2]) and on PCSK9 (setting [3]) was under 4.30 in each case.
On to `CC[C@H](C)[C@@H]1NC(=O)[C@H](CCCNC(=N)N)NC(=O)[C@H](CCCCN)NC(=O)[C@H](CC(C)C)NC(=O)[C@H](CC(N)=O)NC(=O)[C@H](Cc2c[nH]c3ccccc23)NC(=O)[C@@H](NC(=O)CNC(=O)[C@H](CO)NC(=O)CNC(C)=O)CSSC[C@@H](C(N)=O)NC(=O)CNC(=O)[C@H](CCC(N)=O)NC(=O)[C@H](CO)NC(=O)CNC1=O` [Compound 22] (Ac-GSGCWNLKRIGSQGC-NH2; disulfide 4-15 (inferred)), for which the pIC50 is 4.85 and < 4.30 at PCSK9Δhelix (PCSK9Δhelix/Ab20 IC50, TR-FRET, Table 8D, disulfide-cyclized extension peptides); under 4.30 in the assay with His-EGF(A)-Fc (setting [2]); under 4.30 at PCSK9 (PCSK9/EGF(A) IC50, TR-FRET).
Regarding `CC[C@H](C)[C@@H]1NC(=O)[C@H](CCCNC(=N)N)NC(=O)[C@H](CCCCN)NC(=O)[C@H](CC(C)C)NC(=O)[C@H](CC(N)=O)NC(=O)[C@H](Cc2c[nH]c3ccccc23)NC(=O)[C@@H](NC(=O)CCCCCCNC(=O)[C@@H](NC(=O)[C@H](Cc2c[nH]c3ccccc23)NC(=O)[C@H](CC(=O)O)NC(=O)[C@H](CC(C)C)NC(=O)[C@H](Cc2ccc(O)cc2)NC(=O)[C@H](CCC(=O)O)NC(=O)[C@H](CCC(=O)O)NC(=O)[C@H](Cc2c[nH]c3ccccc23)NC(=O)[C@H](CO)NC(=O)[C@@H](NC(=O)[C@H](Cc2ccccc2)NC(=O)[C@@H](NC(=O)[C@@H](NC(C)=O)[C@@H](C)O)C(C)C)[C@@H](C)O)C(C)C)CSSC[C@@H](C(N)=O)NC(=O)CNC(=O)[C@H](CCC(N)=O)NC(=O)[C@H](CO)NC(=O)CNC1=O` [Compound 24], on PCSK9Δhelix, the “inhibition in the PCSK9Δhelix/Ab20 binding assay” value is “maintained potency”. Also, the pIC50 is 9.00 on PCSK9Δhelix (setting [4]) and under 4.30 in the assay with His-EGF(A)-Fc (counterscreen, Example 7). For the same compound, at PCSK9, the “inhibition in the PCSK9/EGF(A) binding assay” value is “maintained potency”.
For `CC[C@H](C)[C@@H]1NC(=O)[C@H](CCCNC(=N)N)NC(=O)[C@H](CCC(N)=O)NC(=O)[C@H](CC(C)C)NC(=O)[C@H](CC(N)=O)NC(=O)[C@H](Cc2c[nH]c3ccccc23)NC(=O)[C@@H]2CCCN2C(=O)[C@H](CC(C)C)NC(=O)[C@H](CCCNC(=N)N)NC(=O)[C@@H](NC(=O)CNC(=O)[C@H](CO)NC(C)=O)CSSC[C@@H](C(N)=O)NC(=O)[C@@H]2CCCN2C(=O)[C@H](CC(C)C)NC(=O)CNC1=O` [Compound 30] (Ac-SGCRLPWNLQRIGLPC-NH2; disulfide 3-16), the pIC50 at PCSK9Δhelix (setting [1]) was 6.02; in the assay on His-EGF(A)-Fc (setting [2]), under 4.30; on PCSK9 (setting [3]) it was under 4.30.
`CC[C@H](C)[C@@H]1NC(=O)[C@H](CCCNC(N)=O)NC(=O)[C@H](CCC(N)=O)NC(=O)[C@H](CC(C)C)NC(=O)[C@H](CC(N)=O)NC(=O)[C@H](Cc2c[nH]c3ccccc23)NC(=O)[C@@H]2CCCN2C(=O)[C@H]([C@@H](C)CC)NC(=O)[C@H](Cc2ccccc2)NC(=O)[C@@H](NC(=O)CNC(=O)[C@H](CO)NC(C)=O)CSSC[C@@H](C(N)=O)NC(=O)[C@@H]2CCCN2C(=O)[C@H](CC(C)C)NC(=O)CNC1=O` [Compound 36] (Ac-SGCFIPWNLQ[Cit]IGLPC-NH2; disulfide 3-16): the pIC50 on PCSK9Δhelix (setting [1]), with His-EGF(A)-Fc (setting [2]) and at PCSK9 (setting [3]) was under 4.30 in each case.
For `CC[C@H](C)[C@@H]1NC(=O)[C@H](CCCNC(=N)N)NC(=O)[C@H](CCCCN)NC(=O)[C@H](CC(C)C)NC(=O)[C@H](CC(N)=O)NC(=O)[C@H](Cc2c[nH]c3ccccc23)NC(=O)[C@@H](NC(C)=O)CSSC[C@@H](C(=O)N[C@@H](Cc2c[nH]c3ccccc23)C(N)=O)NC(=O)CNC(=O)[C@H](CCC(N)=O)NC(=O)[C@H](CO)NC(=O)CNC1=O` [Compound 39] (Ac-CWNLKRIGSQGCW-NH2; disulfide 1-12), the pIC50 is 4.43 on PCSK9Δhelix (setting [1]), under 4.30 with His-EGF(A)-Fc (setting [2]) and under 4.30 on PCSK9 (setting [3]).
On to `CC[C@H](C)[C@@H]1NC(=O)[C@H](CCCNC(=N)N)NC(=O)[C@H](CCCCN)NC(=O)[C@H](CC(C)C)NC(=O)[C@H](CC(N)=O)NC(=O)[C@H](Cc2c[nH]c3ccccc23)NC(=O)[C@H](CC(C)C)NC(=O)[C@@H](NC(=O)[C@H](CC(=O)O)NC(C)=O)CSSC[C@@H](C(=O)N[C@@H](CCC(=O)O)C(=O)N[C@@H](Cc2ccc(O)cc2)C(N)=O)NC(=O)[C@H](CCC(N)=O)NC(=O)[C@H](CO)NC(=O)CNC1=O` [Compound 64] (Ac-DCLWNLKRIGSQCEY-NH2; disulfide 2-13), for which the pIC50 on PCSK9Δhelix (setting [1]), with His-EGF(A)-Fc (setting [2]) and at PCSK9 (setting [3]) was under 4.30 in each case.
For the compound `CC[C@H](C)[C@@H]1NC(=O)[C@H](CCCNC(=N)N)NC(=O)[C@H](CCCCN)NC(=O)[C@H](CC(C)C)NC(=O)[C@H](CC(N)=O)NC(=O)[C@H](Cc2c[nH]c3ccccc23)NC(=O)[C@H](CC(C)C)NC(=O)[C@@H](NC(=O)[C@H](Cc2c[nH]c3ccccc23)NC(C)=O)CSSC[C@@H](C(=O)N[C@@H](CCC(=O)O)C(=O)N[C@@H](Cc2ccc(O)cc2)C(N)=O)NC(=O)[C@H](CCC(N)=O)NC(=O)[C@H](CO)NC(=O)CNC1=O` [Compound 65] (Ac-WCLWNLKRIGSQCEY-NH2; disulfide 2-13), the figures for the pIC50 on PCSK9Δhelix (setting [1]), with His-EGF(A)-Fc (setting [2]) and on PCSK9 (setting [3]) were 5.15, under 4.30 and under 4.30, respectively.
With `CC[C@H](C)[C@@H]1NC(=O)[C@H](CCCNC(=N)N)NC(=O)[C@H](CCCCN)NC(=O)[C@H](CC(C)C)NC(=O)[C@H](CC(N)=O)NC(=O)[C@H](Cc2c[nH]c3ccccc23)NC(=O)[C@@H]2CCCN2C(=O)[C@H](CC(C)C)NC(=O)[C@H](CCCNC(=N)N)NC(=O)[C@@H](NC(C)=O)CSSC[C@@H](C(N)=O)NC(=O)[C@@H]2CCCN2C(=O)[C@H](CC(C)C)NC(=O)CNC1=O` [Compound 67] (Ac-CRLPWNLKRIGLPC-NH2; disulfide 1-14), the pIC50 on PCSK9Δhelix (setting [4]) is 6.15; at PCSK9Δhelix (setting [1]), 6.16; with His-EGF(A)-Fc (setting [2]) it was under 4.30; on PCSK9 (setting [3]), under 4.30.
With `CC[C@H](C)[C@@H]1NC(=O)[C@H](CCCNC(=N)N)NC(=O)[C@H](CCC(N)=O)NC(=O)[C@H](CC(C)C)NC(=O)[C@H](CC(N)=O)NC(=O)[C@H](Cc2c[nH]c3ccccc23)NC(=O)[C@@H]2CCCN2C(=O)[C@H](CC(C)C)NC(=O)[C@H](CCCNC(=N)N)NC(=O)[C@@H](NC(C)=O)CSSC[C@@H](C(N)=O)NC(=O)[C@H](C)NC(=O)[C@H](CC(C)C)NC(=O)CNC1=O` [Compound 68] (Ac-CRLPWNLQRIGLAC-NH2; disulfide 1-14), the pIC50 was 6.03 on PCSK9Δhelix (setting [1]), under 4.30 in the assay with His-EGF(A)-Fc (setting [2]) and under 4.30 on PCSK9 (setting [3]).
As to `CC[C@H](C)[C@@H]1NC(=O)[C@H](CCCNC(=N)N)NC(=O)[C@H](CCC(N)=O)NC(=O)[C@H](CC(C)C)NC(=O)[C@H](CC(N)=O)NC(=O)[C@H](Cc2c[nH]c3ccccc23)NC(=O)[C@@H]2CCCN2C(=O)[C@H](CC(C)C)NC(=O)[C@H](CCCNC(=N)N)NC(=O)[C@@H](NC(C)=O)CSSC[C@@H](C(N)=O)NC(=O)[C@@H]2CCCN2C(=O)[C@H](C)NC(=O)CNC1=O` [Compound 69] (Ac-CRLPWNLQRIGAPC-NH2; disulfide 1-14), the values for the pIC50 at PCSK9Δhelix (setting [1]), with His-EGF(A)-Fc (setting [2]) and on PCSK9 (setting [3]) were 5.18, under 4.30 and under 4.30, respectively.
